Results from patent publication US20070005124A1, “Endoluminal prosthesis comprising a therapeutic agent” (Blue Medical Devices B.V., priority 2003, published 2007).
Entries after “also recorded” stand apart in the source; their conditions may differ.

Columns and labels:
[1] = system: coronary arteries of pigs; experiment: Probucol and Melatonin biological-oil coated stents implanted in porcine coronary arteries, histopathology and morphometry at 4 weeks; format: in vivo, Domestic crossbred pigs; conditions: oil-coated loaded stents; for AS: Area stenosis (= 100 * (1 − LA/IEL)) / Inflammation (peri-strut inflammation score 1-3, mean) / Injury (arterial injury score, Schwartz grade 0-3, mean) / NIH: Neointimal hyperplasia (= IEL − LA) / LA: Lumen area: 4 weeks follow-up; for LA: Lumen area: Probucol 447+/−56 μg, Melatonin 367+/−47 μg per stent; for effect on arterial injury and inflammatory response (in words): compared to bare and/or oil-only stents
Method: Domestic crossbred pigs of both sexes weighing 20-25 kg were used. They were fed with a standard natural grain diet without lipid or cholesterol supplementation throughout the study. All animals were treated and cared for in accordance with the Belgium National Institute of Health Guidelines for care and use of laboratory animals.
In this study, bare Jostent Flexmaster stents (n=8), Bare stents dipped in a Biological oil coating (Oil Only; n=7), Bare stents dipped in a Probucol/Biological oil coating solution resulting in a total Probucol load of 447+/−56 μg/per stent (Pro, n=7) and Bare stents dipped in a Melatinin/Biological oil coating solution resulting in a total Melatonin load of 367+/−47 μg/stent (Mela, n=8). Stents were implanted in the coronary arteries of 15 pigs. All pigs were followed for 4 weeks to evaluate the peri-strut inflammatory response and neointimal formation.
Surgical procedure and stent implantation in the coronary arteries were performed according to the method described by De Scheerder et al. in “Local angiopeptin delivery using coated stents reduces neointimal proliferation in overstretched porcine coronary arteries.” J. Inves. Cardiol. 8:215-222; 1996, and in “Experimental study of thrombogenicity and foreign body reaction induced by heparin-coated coronary stents.” Circulation 95:1549-1553; 1997. The guiding catheter was used as a reference to obtain an oversizing from 10 to 20%.
Coronary segments were carefully dissected together with a 1 cm minimum vessel segment both proximal and distal to the stent. The segments were fixed in a 10% formalin solution. The middle part of each stent was harvested for histopathologic analysis. Tissue specimens were embedded in a cold-polymerizing resin (Technovit 7100, Heraus Kulzer GmbH, and Wehrheim, Germany). Sections, 5 microns thick, were cut with a rotary heavy duty microtome HM 360 (Microm, Walldorf, Germany) equipped with a hard metal knife and stained with hematoxylin-eosin, elastic stain and phosphotungstic acid hematoxylin stain. Light microscopic examination was performed by an experienced pathologist who was blinded to the type of stent used. Injury of the arterial wall due to stent deployment (and eventually inflammation induced by the polymer) was evaluated for each stent filament and graded as described by Schwartz et al. • Grade 0=internal elastic membrane intact, media compressed but not lacerated; • Grade 1=internal elastic membrane lacerated; • Grade 2=media visibly lacerated; external elastic membrane compressed but intact; • Grade 3=large laceration of the media extending through the external elastic membrane or stent filament residing in the adventitia.
Inflammatory reaction at each stent filament was carefully examined, searching for inflammatory cells, and scored as followed: • 1=sparsely located histolymphocytes surrounding the stent filament; • 2=more densely located histolymphocytes covering the stent filament, but no lymphogranuloma and/or giant cells formation found; • 3=diffusely located histolymphocytes, lymphogranuloma and/or giant cells, also invading the media. • Mean score=sum of score for each filament/number of filament present.

[2] = In-vivo melatonin coronary vascular concentration after direct-coated stent; conditions: direct coating
Description: (§1) A disavantage of the direct coating system is the fast release of the drug from the stent.

porcine coronary model [3] = experiment: Directly (ethanol dip) coated stents in a porcine coronary model; format: in vivo; conditions: direct coating
Description: To get rid of the polymer, which remains always a concern when coating a drug on an endoluminal prosthesis, since several polymers have shown to be non biocompatible and to induce an inflammatory response leading to SMC proliferation and restenosis, the present inventor tried to coat melatonin directly to the surface of the endoluminal prosthesis. As endoluminal prosthesis use was made of a commercially available 316L stainless steel coronary stent (V-Flex Plus, 16 mm/3.0 mm, William Cook Europe) and the stent was dipped in a 20 mg/ml ethanol solution for 30 seconds. After removal the stent was air-dried using a warm laminar flow to evaporate the ethanol. Using this method a total melatonin load on the stent of 20 μg could be achieved. […] This could be explained by the 1) the potent free radical scavenging effect of melatonin, 2) the potent anti-inflammatory effect of melatonin, 3) maybe a direct effect on SMC proliferation, 4) the non toxic effect of melatonin on other mediators of the healing response.
In a next step the total load of melatonin was increased by using more concentrated melatonin/ethanol solutions. By doing so a maximum total load of 300 μg/ stent could be achieved.

[4] = system: in-stent neointimal hyperplasia; experiment: Further studies with different total loading doses per stent, in-stent neointimal hyperplasia; format: in vivo
porcine coronary model [5] = experiment: Oil/solvent emulsion coated stents (500 μg) in a porcine coronary model, up to 3 months; format: in vivo; conditions: oil/solvent emulsion coating, 500 μg melatonin per stent
Method: (§2) In order to maintain significant melatonin concentrations for a longer period of time to obtain a durable anti-restenosis effect the present inventor has developed new methods to achieve a slower melatonin release. The drug was dissolved in a biocompatible emulsion of oil and a solvent wherein the drug is highly soluble. The stent was dipped in this emulsion several times and in between the different dipping steps air-dried using a warm laminar flow to evaporate the solvent and harden the drug/oil coating.
Using the same coating method, no effect of probucol was found.

[6] = In-vitro release of drug from coated stent; format: physicochemical
Method: as §1, §2

Structure (SMILES)	effect on neointimal hyperplasia compared to bare and oil-only stents (in words) ([1]; 4 weeks)	lumen area compared with the other groups (in words) ([1]; 4 weeks)	AS: Area stenosis (= 100 * (1 − LA/IEL)) [1]	Inflammation (peri-strut inflammation score 1-3, mean) [1]	Injury (arterial injury score, Schwartz grade 0-3, mean) [1]	NIH: Neointimal hyperplasia (= IEL − LA) [1]	LA: Lumen area [1]	effect on arterial injury and inflammatory response (in words) ([1]; 4 weeks)	duration of sufficient melatonin coronary vascular concentration [2]	biocompatibility / inflammation surrounding the struts on histological examination (porcine coronary model [3]; 20 μg per stent, follow-up after 5 days)	effect on inflammatory response and neointimal hyperplasia (porcine coronary model [3]; high dose, maximum total load 300 μg/stent)	decrease in neointimal hyperplasia compared to a bare stent (porcine coronary model [3]; total load 20 μg per stent, after 4 weeks)	effect on neointimal hyperplasia ([4]; dose depending response, already observed for a dose of 0.5 μg/mm^2 stent area)	effect on peri-strut inflammation and neointimal hyperplasia (porcine coronary model [5])	In-vitro release ([6]; direct coating, within 24 hours)	melatonin release period ([6]; oil/solvent emulsion coating, total load 500 μg per stent)	Inflammation (peri-strut inflammation score 1-3, mean) ([1]; listed as Probutol)	effect on inflammatory response and neointimal hyperplasia (porcine coronary model [3]; similar experiments as 20 μg melatonin stents)	effect on in-stent neointimal hyperplasia ([4]; Probucol total loading doses 10-2000 μg per stent)
COc1ccc2[nH]cc(CCNC(C)=O)c2c1 [Melatonin, N-acetyl-5-methoxytryptamine]	significant decrease	larger than the other groups	16±7%	1.00±0.00	0.08 ± 0.09	0.89±0.28 mm2	5.10 ± 1.40 mm2	the injury score was dramatically decreased; also recorded: minimal inflammatory response	up to 15 days	without inducing any inflammation	efficient blocking of inflammatory response and neointimal hyperplasia	26%	significant inhibition	Sustained inhibition of peri-strut inflammation and neointimal hyperplasia	90%	weeks instead of days			
CC(C)(Sc1cc(C(C)(C)C)c(O)c(C(C)(C)C)c1)Sc1cc(C(C)(C)C)c(O)c(C(C)(C)C)c1 [Probucol]	no significant effect		24 ± 14%	1.03 ± 0.08	0.28 ± 0.20	1.43 ± 0.77 mm2	4.46 ± 1.06 mm2	could decrease arterial injury and inflammatory response						no effect			1.03±0.08	did not result in a significant effect	no significant effect
